Laboratory results as given in ChEMBL document CHEMBL1144289, “A convenient one-pot synthesis of asymmetric 1,3,5-triazine-2,4,6-triones and its application towards a novel class of gonadotropin-releasing hormone receptor antagonists” (Bioorg Med Chem Lett, 2005).

target: T1, Gonadotropin-releasing hormone receptor (Homo sapiens, UniProt P30968); test: Inhibitory constant against cloned human Gonadotropin-releasing hormone receptor stably expressed in HEK293 cells was determined; format: cell-based
T1 sequence (P30968 whole entry): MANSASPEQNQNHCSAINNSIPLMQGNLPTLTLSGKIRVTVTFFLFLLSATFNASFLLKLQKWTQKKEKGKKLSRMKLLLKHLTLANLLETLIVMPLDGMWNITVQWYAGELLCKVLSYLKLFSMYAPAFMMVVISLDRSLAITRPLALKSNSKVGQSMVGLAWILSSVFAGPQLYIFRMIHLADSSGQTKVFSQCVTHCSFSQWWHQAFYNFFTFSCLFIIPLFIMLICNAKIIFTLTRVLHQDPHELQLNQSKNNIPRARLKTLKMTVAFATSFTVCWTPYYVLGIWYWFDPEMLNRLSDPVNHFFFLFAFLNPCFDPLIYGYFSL

Ki [nM]	Structure (SMILES)
410	N[C@@H](Cn1c(=O)n(Cc2c(F)cccc2F)c(=O)n(-c2ccc3nsnc3c2)c1=O)c1ccccc1
4200	COc1cccc(-n2c(=O)n(CCN(C)CCc3ccccn3)c(=O)n(Cc3c(F)cccc3F)c2=O)c1
220	N[C@@H](Cn1c(=O)n(Cc2c(F)cccc2F)c(=O)n(-c2c(F)cccc2F)c1=O)c1ccccc1
89	N[C@@H](Cn1c(=O)n(Cc2c(F)cccc2F)c(=O)n(-c2ccccc2F)c1=O)c1ccccc1
1.1	COc1cccc(-c2c(C)n(Cc3c(F)cccc3F)c(=O)n(C[C@@H](C)N(C)CCc3ccccn3)c2=O)c1
380	NC(Cc1c[nH]c2ccccc12)Cn1c(=O)n(Cc2c(F)cccc2F)c(=O)n(-c2c(F)cccc2F)c1=O (centres undefined)
37	COc1cccc(-n2c(=O)n(Cc3c(F)cccc3F)c(=O)n(C[C@H](N)c3ccccc3)c2=O)c1
> 20000	COc1cccc(-c2c(C)n(CCN(C)CCc3ccccn3)c(=O)n(Cc3c(F)cccc3F)c2=O)c1
120	COc1cccc(-n2c(=O)n(Cc3c(F)cccc3F)c(=O)n(CC(N)c3ccccc3)c2=O)c1 (centres undefined)
